In patent publication US12037346B2, “Amino-substituted heteroaryls for treating cancers with EGFR mutations” (Nuvalent, Inc., priority 2021, dated 2024):

Columns and labels:
Assay type in all cases: cell-based
[1] = test system: A431 cells (amplification of the wild-type EGFR gene), phospho-ERK Thr202/Tyr204; assay: Cellular phosphorylation assay, pERK (phospho-ERK Thr202/Tyr204 AlphaLISA) in A431; conditions: Homo sapiens, A-431, compound incubated for 5 hours
Method: (§1) Besides Ba/F3s, two commercially available cell lines were also used. NCI-H1781 is a HER2 exon20 insertion cell line bearing HER2-A775_G776insV-G776C. A431 bears amplification of the wild-type EGFR gene.
(§2) Ba/F3 cells were plated at 50,000 cells/well (40 μL), or NCI-H1781 cells or A431 cells were plated at 12,500 cells/well (40 μL), in a 384-well plate for 1 day. Test compounds (40 nL) were then added in a 3-fold dilution series using the TECAN EV0200 liquid handler and incubated for 5 hours. Only for pEGFR analysis in A431, the cells were briefly stimulated with EGF (30 ng/mL) for 15 minutes. Media were removed using Apricot Designs. Phosphoproteins were analyzed using the phospho-EGFR Tyr1068 AlphaLISA kit (“pEGFR”; PerkinElmer #ALSU-PEGFR-B10K;) phospho-ERK Thr202/Tyr204 AlphaLISA kit (“pERK”; PerkinElmer #ALSU-PERK-A10K) or the phospho-ErbB2 Tyr1221/1222 AlphaLISA kit (“pHER2”; PerkinElmer #ALSU-PEB2-A10K;) according to the manufacturer's instructions. Briefly, cells were lysed with lysis buffer (10 μL) containing protease-inhibitor and phosphatase-inhibitor cocktails. The lysates were transferred into a new optical plate, incubated with the acceptor mix (5 μL) for 1.5-2 hours at room temperature in darkness, and then mixed with the donor mix (5 μL) overnight in darkness. Fluorescence was measured on a plate reader using the appropriate AlphaLISA settings. Half-maximal inhibitory concentration (IC50) was calculated from percent inhibition and inhibitor concentration using four-parameter logistic regression. […]

[2] = target: T1, wild-type EGFR (A431 cells) (Homo sapiens, UniProt P00533); assay: Cellular phosphorylation assay, pEGFR (phospho-EGFR Tyr1068 AlphaLISA) in A431; conditions: compound incubated for 5 hours, EGF (30 ng/mL) for 15 minutes
T1 construct: A431 bears amplification of the wild-type EGFR gene; endogenous in cells; host or cells: A431
Method: as §1, §2

[3] = target: Ba/F3 HER2-YVMA cells (HER2-A775_G776insYVMA) (Homo sapiens, UniProt P04626, DUP772-775, cells depend on it); assay: Cell proliferation assay (CellTiter-Glo), Ba/F3 HER2-YVMA; conditions: read-out: Ba/F3 HER2-YVMA cell proliferation IC50
Method: The gene encoding HER2-A775_G776insYVMA (“HER2-YVMA”) was synthesized at GeneRay, cloned into the retroviral construct pMSCV-puro (Biovector), and packaged into retroviral particles. The virus was used to infect Ba/F3 cells (RIKEN) at multiplicity of infection=1 or 10 for 1 day. Infected cells were rescued in media (RPMI-1640 with 10% fetal bovine serum and 1% streptomycin and penicillin) supplemented with mouse IL-3 (10 ng/mL) for 2 days, and stable cell lines were selected by IL-3 withdrawal and puromycin (0.8 μg/mL) for 7 days. Monoclones were selected by single-cell dilution in IL-3-free medium containing puromycin ([…]). Transformation of desired genes was confirmed by Sanger sequencing and western blot using the following antibody: HER2 (CST #2242).
(§3) Ba/F3 cells were plated at 1,000 cells/well (40 μL), or NCI-H1781 or A431 cells were plated at 2,000 cells/well (40 μL), in a 384-well plate for 1 day. Test compounds (40 nL) were then added in a 3-fold dilution series using the TECAN EV0200 liquid handler and incubated for 48 hours (“2 days”), 72 hours (“3 days”), or 48 hours followed by renewal of compound solutions and further incubation for 72 hours (“2 days/3 days”). The 72-hour assay was necessary for NCI-H1781 cells, which are slow-growing, and the resupply of fresh compounds on day 3 obviated the potential confounding effects arising from compound degradation in cell media over 72 hours. Plates were equilibrated at room temperature for 15 minutes followed by addition of 40 μL CellTiter-Glo reagent (Promega). Luminescence was measured on a plate reader. Half-maximal inhibitory concentration (IC50) was calculated from percent inhibition and inhibitor concentration using four-parameter logistic regression. […] In these cases, the regression curve was drawn only for the first inflexion to accurately measure on-target growth inhibitory effect.
(§4) Ba/F3, NCI-H1781, and A431 proliferation is driven by the oncogenes in the same way that cancer cell proliferation in humans is driven by the expression of equivalent oncogenes.

[4] = test system: NCI-H1781 cells (HER2-A775_G776insV-G776C); assay: Cell proliferation assay (CellTiter-Glo), NCI-H1781; conditions: first inflexion of biphasic curve
Method: as §1, §3, §4

T1 sequence (P00533 25-1210): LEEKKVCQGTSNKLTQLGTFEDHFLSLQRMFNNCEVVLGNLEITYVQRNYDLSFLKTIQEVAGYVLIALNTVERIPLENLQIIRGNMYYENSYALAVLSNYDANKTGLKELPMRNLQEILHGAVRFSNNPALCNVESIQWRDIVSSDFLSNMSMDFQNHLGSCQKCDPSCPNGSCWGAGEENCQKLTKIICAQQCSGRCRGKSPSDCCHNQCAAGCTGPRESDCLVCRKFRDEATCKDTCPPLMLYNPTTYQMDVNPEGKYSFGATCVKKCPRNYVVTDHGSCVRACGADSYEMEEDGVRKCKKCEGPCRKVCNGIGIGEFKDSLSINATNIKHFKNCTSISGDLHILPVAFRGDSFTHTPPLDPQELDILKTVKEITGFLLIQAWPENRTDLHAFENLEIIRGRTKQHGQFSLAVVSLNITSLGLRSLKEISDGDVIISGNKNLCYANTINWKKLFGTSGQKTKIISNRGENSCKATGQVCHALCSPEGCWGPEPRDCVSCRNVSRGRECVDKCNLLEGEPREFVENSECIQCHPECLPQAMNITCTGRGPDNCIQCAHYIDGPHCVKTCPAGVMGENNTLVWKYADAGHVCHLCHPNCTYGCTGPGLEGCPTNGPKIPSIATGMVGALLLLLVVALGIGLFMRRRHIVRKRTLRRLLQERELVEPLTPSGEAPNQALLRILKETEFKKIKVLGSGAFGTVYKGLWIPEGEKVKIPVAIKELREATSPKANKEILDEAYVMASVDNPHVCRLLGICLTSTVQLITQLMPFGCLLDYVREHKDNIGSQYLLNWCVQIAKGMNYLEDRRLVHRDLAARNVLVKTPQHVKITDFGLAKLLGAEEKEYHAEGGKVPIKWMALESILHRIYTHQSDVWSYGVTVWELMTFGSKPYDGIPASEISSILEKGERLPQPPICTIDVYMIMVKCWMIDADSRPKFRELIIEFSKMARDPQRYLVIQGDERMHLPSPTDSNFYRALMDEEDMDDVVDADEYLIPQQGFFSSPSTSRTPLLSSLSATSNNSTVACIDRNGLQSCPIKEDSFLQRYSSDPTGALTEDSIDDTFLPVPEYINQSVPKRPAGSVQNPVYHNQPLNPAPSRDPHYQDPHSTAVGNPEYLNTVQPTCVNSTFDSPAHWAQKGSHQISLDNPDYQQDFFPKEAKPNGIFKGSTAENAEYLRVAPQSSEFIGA
Chain of Ba/F3 HER2-YVMA cells (HER2-A775_G776insYVMA) (P04626 with tags, fused parts or gaps DUP772-775): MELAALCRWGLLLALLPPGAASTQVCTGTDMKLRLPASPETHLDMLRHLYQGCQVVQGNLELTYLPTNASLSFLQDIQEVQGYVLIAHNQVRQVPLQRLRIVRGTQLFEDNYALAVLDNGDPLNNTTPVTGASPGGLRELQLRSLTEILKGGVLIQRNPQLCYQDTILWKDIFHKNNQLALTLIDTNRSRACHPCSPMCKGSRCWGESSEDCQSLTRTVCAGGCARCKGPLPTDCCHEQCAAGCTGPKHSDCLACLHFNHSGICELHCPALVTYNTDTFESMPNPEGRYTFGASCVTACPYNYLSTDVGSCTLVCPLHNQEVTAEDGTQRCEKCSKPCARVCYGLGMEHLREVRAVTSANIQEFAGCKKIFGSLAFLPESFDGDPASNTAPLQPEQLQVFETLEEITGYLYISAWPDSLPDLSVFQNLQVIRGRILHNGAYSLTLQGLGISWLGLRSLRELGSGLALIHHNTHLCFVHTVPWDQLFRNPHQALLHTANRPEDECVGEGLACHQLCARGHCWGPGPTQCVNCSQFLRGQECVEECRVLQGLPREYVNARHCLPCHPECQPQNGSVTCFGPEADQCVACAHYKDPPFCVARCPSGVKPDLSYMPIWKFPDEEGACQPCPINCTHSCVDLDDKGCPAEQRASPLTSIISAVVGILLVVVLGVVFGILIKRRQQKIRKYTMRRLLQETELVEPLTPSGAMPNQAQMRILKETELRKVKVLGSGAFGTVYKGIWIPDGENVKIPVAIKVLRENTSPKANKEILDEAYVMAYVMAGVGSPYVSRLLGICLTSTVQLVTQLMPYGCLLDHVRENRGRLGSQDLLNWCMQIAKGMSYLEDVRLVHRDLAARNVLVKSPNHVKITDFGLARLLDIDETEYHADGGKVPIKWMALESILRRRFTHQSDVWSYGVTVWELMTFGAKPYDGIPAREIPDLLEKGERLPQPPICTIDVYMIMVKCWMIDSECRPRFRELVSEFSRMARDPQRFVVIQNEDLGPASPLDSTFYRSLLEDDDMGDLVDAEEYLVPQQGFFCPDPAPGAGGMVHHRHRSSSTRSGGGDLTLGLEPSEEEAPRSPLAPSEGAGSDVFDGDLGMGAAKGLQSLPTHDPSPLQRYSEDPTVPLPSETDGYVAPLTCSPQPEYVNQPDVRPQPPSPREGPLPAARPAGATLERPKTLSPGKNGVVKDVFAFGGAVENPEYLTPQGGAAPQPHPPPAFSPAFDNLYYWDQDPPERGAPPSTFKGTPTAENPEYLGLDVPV

Row | SMILES | IC50 [1] [nM] | IC50 [2] [nM] | GI50 [3] [nM] | IC50 [4] [nM]
1 | C=CC(=O)N1CCN(c2ncc3ncnc(Nc4ccc(Oc5ccn6ncnc6c5)c(C)c4F)c3n2)[C@H](C)[C@@H]1C (relative stereo) [Example 40] | < 100 | < 100 | < 100 | < 100
2 | Cc1cc(Nc2ncnc3ccc(N4CCN(C(=O)/C=C/CN(C)C)CC4)nc23)ccc1Oc1ccn2ncnc2c1 [Example 7] | 100 to 500 | 100 to 500 | < 100 | < 100
3 | C=CC(=O)N1CC=C(c2ccc3ncnc(Nc4ccc(Oc5cc(OC)n6ncnc6c5)c(C)c4)c3n2)CC1 [Example 15] | ≥ 1000 | ≥ 1000 | < 100 | 100 to 500
4 | C=CC(=O)N1CC=C(c2ccc3ncnc(Nc4ccc(Oc5cc(Cl)n6ncnc6c5)c(C)c4)c3n2)CC1 [Example 16] | 500 to 1000 | 500 to 1000 | < 100 | 100 to 500
5 | C=CC(=O)N1CC=C(c2ccc3ncnc(Nc4ccc(Oc5cc(C)n6ncnc6c5)c(C)c4)c3n2)CC1 [Example 17] | ≥ 1000 | ≥ 1000 | < 100 | < 100
6 | C=CC(=O)N1CCN(c2ccc3ncnc(Nc4ccc(Oc5ccn6ncnc6c5)c(C)c4)c3c2OC)CC1 [Example 20] | ≥ 1000 | ≥ 1000 | < 100 | < 100
7 | C=CC(=O)N1CCN(c2ccc3ncnc(Nc4ccc(Oc5ccn6ncnc6c5)c(C)c4)c3c2F)CC1 [Example 29] | – | ≥ 1000 | < 100 | < 100
8 | C=CC(=O)N1CCN(c2ncc3ncnc(Nc4ccc(Oc5ccn6ncnc6c5)c(C(F)(F)F)c4F)c3n2)C[C@H]1C [Example 39] | ≥ 1000 | ≥ 1000 | 100 to 500 | 500 to 1000
9 | C=CC(=O)N1C[C@@H]2CC[C@H]1CN2c1ncc2ncnc(Nc3ccc(Oc4ccn5ncnc5c4)c(C)c3F)c2n1 [Example 41] | < 100 | < 100 | < 100 | < 100
10 | C=CC(=O)N1CCN(c2ncc3ncnc(Nc4ccc(Oc5ccn6ncnc6c5)c(C)c4F)c3n2)[C@@H](C)C1 [Example 43] | 100 to 500 | 100 to 500 | < 100 | < 100
11 | C=CC(=O)N1C[C@H]2CC[C@@H]1CN2c1ncc2ncnc(Nc3ccc(Oc4ccn5ncnc5c4)c(C)c3F)c2n1 [Example 45] | ≥ 1000 | ≥ 1000 | < 100 | 100 to 500
12 | C=CC(=O)N1CCC(c2ncc3ncnc(Nc4ccc(Oc5cc(C)n6ncnc6c5)c(C)c4F)c3n2)=C[C@@H]1C [Example 96] | ≥ 1000 | ≥ 1000 | 100 to 500 | –
13 | C=CC(=O)N1CCN(c2ncc3ncnc(Nc4ccc(Oc5ccn6ncnc6c5)c(C)c4F)c3n2)[C@H](C)[C@H]1C [Example 100] | 100 to 500 | ≥ 1000 | < 100 | –

The remaining lines, values ahead:

Row | IC50 [1] [nM] | IC50 [2] [nM] | GI50 [3] [nM] | IC50 [4] [nM] | SMILES
14 | 100 to 500 | 100 to 500 | < 100 | < 100 | C=CC(=O)N1CCN(c2ccc3ncnc(Nc4ccc(Oc5ccn6ncnc6c5)c(C)c4)c3n2)C[C@H]1C [Example 6]
15 | ≥ 1000 | ≥ 1000 | < 100 | < 100 | C=CC(=O)N1CCN(c2ccc3ncnc(Nc4ccc(Oc5ccn6ncnc6c5)c(C)c4)c3n2)C(=O)C1 [Example 8]
16 | – | ≥ 1000 | < 100 | 100 to 500 | C=CC(=O)N1CC=C(c2ccc3ncnc(Nc4cc(C)c(Oc5ccn6ncnc6c5)cc4F)c3n2)CC1 [Example 11]
17 | 500 to 1000 | ≥ 1000 | < 100 | < 100 | C=CC(=O)N1CCN(c2ccc3ncnc(Nc4ccc(Oc5ccn6ncnc6c5)c(C)c4)c3n2)[C@@H](C)C1 [Example 22]
18 | ≥ 1000 | ≥ 1000 | ≥ 1000 | ≥ 1000 | C=C(F)C(=O)N1CC=C(c2ccc3ncnc(Nc4ccc(Oc5ccn6ncnc6c5)c(C)c4)c3n2)CC1 [Example 31]
19 | 500 to 1000 | – | < 100 | < 100 | C=CC(=O)N1CCN(c2ncc3ncnc(Nc4ccc(Oc5ccn6ncnc6c5)c(C)c4F)c3n2)C[C@H]1C [Example 32]
20 | – | ≥ 1000 | 100 to 500 | 100 to 500 | C=CC(=O)N1CCN(c2ncc3ncnc(Nc4cc(C)c(Oc5ccn6ncnc6c5)cc4F)c3n2)[C@H](C)C1 [Example 34]
21 | ≥ 1000 | ≥ 1000 | < 100 | 100 to 500 | C=CC(=O)N1CCN(c2ncc3ncnc(Nc4cc(C)c(Oc5ccn6ncnc6c5)cc4F)c3n2)[C@@H](C)C1 [Example 35]
22 | ≥ 1000 | ≥ 1000 | 100 to 500 | 100 to 500 | C=CC(=O)N1CCN(c2ncc3ncnc(Nc4cc(C)c(Oc5ccn6ncnc6c5)cc4F)c3n2)C[C@@H]1C [Example 36]
23 | ≥ 1000 | 500 to 1000 | < 100 | < 100 | C=CC(=O)N1CC=C(c2ncc3ncnc(Nc4ccc(Oc5ccn6ncnc6c5)c(C)c4F)c3n2)CC1 [Example 37]
24 | – | ≥ 1000 | 100 to 500 | 100 to 500 | C=CC(=O)N1CC=C(c2ncc3ncnc(Nc4cc(C)c(Oc5ccn6ncnc6c5)cc4F)c3n2)CC1 [Example 38]
25 | – | ≥ 1000 | < 100 | < 100 | C=CC(=O)N1CC=C(c2ncc3ncnc(Nc4ccc(Oc5ccn6ncnc6c5)c(C)c4F)c3n2)C[C@@H]1C [Example 42]
26 | – | ≥ 1000 | 100 to 500 | 100 to 500 | C=CC(=O)N1C[C@@H](C)N(c2ncc3ncnc(Nc4ccc(Oc5ccn6ncnc6c5)c(C)c4F)c3n2)C[C@H]1C [Example 44]
27 | ≥ 1000 | ≥ 1000 | < 100 | – | C=CC(=O)N1CC=C(c2ncc3ncnc(Nc4ccc(Oc5ccn6ncnc6c5)c(C)c4)c3n2)C[C@@H]1C [Example 95]
